Test results from article PMC8472287, “Betulinic Acid Decorated with Polar Groups and Blue Emitting BODIPY Dye: Synthesis, Cytotoxicity, Cell-Cycle Analysis and Anti-HIV Profiling” (Biomedicines, 2021).
Where two headings read alike, the source gives them in different places.

Columns and labels:
[1] = tested on: U2OS-Nuc cell line; assay: Live cell imaging, pilot experiment; format: cell-based, human; settings: 10 µM, 1 h incubation
Description: U2OS cell line (ATCC, USA) was transduced with premade lentiviral particles (Vectalis-TaKaRa, Japan) with sequences that express fluorescent protein tag mCherry targeted to specific subcellular locations. All cell lines were prepared according to the vendor’s instructions. The U2OS-Nuc cell line was prepared by using rLV.EF1.mCherry-Nuc-9 (cat. n. 0023VCT), containing a NLS sequence that imports protein into the nucleus. The U2OS-ER cell line was transduced by rLV.EF1.mCherry-ER-9 (cat. n. 0025VCT), which contains a calreticulin signal sequence and a KDEL sequence that associates protein with the endoplasmic reticulum. The U2OS-GA cell line was transduced by rLV.EF1.mCherry-Golgi-9 (cat. n. 0022VCT), containing a human GT precursor, a protein localized in Golgi Apparatus. The U2OS-Mito cell line was prepared by using rLV.EF1.mCherry-Mito-9 (cat. n. 0024VCT), containing a mitochondrial targeting sequence.
U2OS cells with fluorescent fusion proteins (density 1.0 × 10^3 per well) were seeded into 384 CellCarrier plates (Perkin Elmer, Waltham, MA, USA) and pre-incubated for 24 h at 37 °C and 5% CO2. The attached cells were treated with tested compounds in concentration 10 µM for 1 h and subsequently rinsed with fresh media. The live-cell imaging was performed by Cell Voyager CV7000 (Yokogawa, Tokyo, Japan) spinning disc confocal microscopy system at 37 °C in a 5% CO2 atmosphere. Live cells were monitored by a 60 × water immersion objective. The fluorescent signal was excited by lasers (405 nm and 561 nm) and the emission was filtered by bandpass filters (BP 445/45 and BP 595/20). All images were post-processed, and Pearson’s and Mander’s coefficients were calculated using the JACoP plugin in Image-J software.

[2] = tested on: CCRF-CEM; assay: MTS cytotoxicity assay, CCRF-CEM; format: cell-based; settings: Homo sapiens, 72 h, 3-day incubation
Description: (§1) All cells (if not indicated otherwise) were purchased from the American Tissue Culture Collection (ATCC; Manassas, VA, USA). The highly chemosensitive CCRF-CEM line is derived from T lymphoblastic leukaemia, K562 represent cells of chronic myelogenous leukaemia. Colorectal adenocarcinoma HCT116 cell line and its p53 gene knockout counterpart (HCT116p53−/−, Horizon Discovery Ltd., Cambridge, UK) were used as models to assess the impact of p53 deficiency on cell line sensitivity. A549 cells are derived from lung adenocarcinoma and U2OS from human osteosarcoma. CEM-DNR and K562-Tax are well-characterized daunorubicin and paclitaxel-resistant sublines of CCRF-CEM and K562. The CEM-DNR resistant cells overexpress the P-glycoprotein and LRP protein, the K562-Tax overexpress P-glycoprotein but is losing the expression of LRP, which is present at parental K562 cell line. P-glycoprotein belongs to the ABC transporters’ family and is involved in the primary and acquired multidrug resistance phenomenon by the efflux of toxic compounds, LRP protein is involved in the lysosomal degradation. MRC-5 and BJ cell lines were used as a non-tumour control and represent human fibroblasts. The cells were maintained in Nunc/Corning 80 cm^2 plastic tissue culture flasks and cultured in cell culture medium according to ATCC or Horizon recommendations (DMEM/RPMI 1640 with 5 g/L-glucose, 2 mM glutamine, 100 U/mL penicillin, […] streptomycin, 10% fetal calf serum, and NaHCO3).
(§2) To perform the cytotoxicity MTS assay, cell suspensions were prepared and diluted according to the cell type and the expected target cell density (25,000–35,000 cells/mL) based on cell growth characteristics. Cells were added by an automatic pipettor (30 μL) into 384 well microtiter plates. All tested compounds were dissolved in 100% DMSO and four-fold dilutions of the intended test concentration were added in 0.15 μL aliquots at time zero to the microtiter plate wells by the echo-acoustic liquid handler Echo550 (Labcyte, San Jose, CA, USA). The experiments were performed in technical duplicates and at least three biological replicates. The cells were incubated with the tested compounds for 72 h at 37 °C, in a 5% CO2 atmosphere at 99% humidity. At the end of the incubation period, the cells were assayed by using the MTS test. Aliquots (5 µL) of the MTS stock solution were pipetted into each well and incubated for an additional 1–4 h. After this incubation period, the optical density (OD) was measured at 490 nm with an Envision microplate reader (Perkin Elmer, Waltham, Massachusetts, USA). Tumour cell survival (TCS) was calculated using the following equation: TCS = (ODdrug-exposed well/mean ODcontrol wells) × 100%.

[3] = tested on: CEM-DNR; assay: MTS cytotoxicity assay, CEM-DNR; format: cell-based; settings: Homo sapiens, 72 h, CEM-DNR (daunorubicin resistant), 3-day incubation
Description: as §1, §2

[4] = tested on: K562; assay: MTS cytotoxicity assay, K562; format: cell-based; settings: Homo sapiens, 72 h, 3-day incubation
Description: as §1, §2

[5] = tested on: K562-Tax; assay: MTS cytotoxicity assay, K562-Tax; format: cell-based; settings: Homo sapiens, 72 h, K562-Tax (paclitaxel-resistant), 3-day incubation
Description: as §1, §2

[6] = tested on: A549; assay: MTS cytotoxicity assay, A549; format: cell-based; settings: Homo sapiens, 72 h, 3-day incubation
Description: as §1, §2

[7] = tested on: HCT116; assay: MTS cytotoxicity assay, HCT116; format: cell-based; settings: Homo sapiens, HCT-116, 72 h, 3-day incubation
Description: as §1, §2

[8] = tested on: HCT116p53−/−; assay: MTS cytotoxicity assay, HCT116p53−/−; format: cell-based; settings: Homo sapiens, HCT116-p53-null, 72 h, HCT116p53−/− (null p53 gene), 3-day incubation
Description: as §1, §2

[9] = tested on: U2OS; assay: MTS cytotoxicity assay, U2OS; format: cell-based; settings: Homo sapiens, 72 h, 3-day incubation
Description: as §1, §2

[10] = tested on: MRC-5; assay: MTS cytotoxicity assay, MRC-5; format: cell-based; settings: Homo sapiens, MRC5, 72 h, MRC-5 normal fibroblasts, 3-day incubation
Description: as §1, §2

[11] = tested on: BJ; assay: MTS cytotoxicity assay, BJ; format: cell-based; settings: Homo sapiens, 72 h, BJ normal fibroblasts, 3-day incubation
Description: as §1, §2

[12] = tested on: CCRF-CEM lymphoblasts; assay: BrDU incorporation analysis (DNA synthesis); format: cell-based, human; settings: 24 h incubation
Description: Cells were cultivated as in the method above and pulse-labelled with 10 μM 5-bromo-2-deoxyuridine (BrDU) for 30 min before collection to the test tubes. The cells were washed with cold 1 × PBS and fixed in ice-cold 70% ethanol. Before analysis, they were washed with 1 × PBS and incubated in 2M HCl for 30 min at room temperature. Following neutralization with 0.1M Na2B4O7 (borax), the cells were washed with 0.5% Tween-20 and 1% BSA in 1 × PBS. The cell pellets were stained using a primary anti-BrdU antibody (Exbio, Vestec, Czech Republic) for 30 min at room temperature and a secondary anti-mouse-FITC antibody (Sigma). The samples were then incubated with propidium iodide (0.1 mg mL^−1), treated with RNase A (0.5 mg mL^−1) for 1 h at room temperature in the dark and analysed as above.

[13] = tested on: CCRF-CEM lymphoblasts; assay: BrU incorporation analysis (RNA synthesis); format: cell-based, human; settings: 24 h, 5 × IC50 (high concentration)
[14] = tested on: CA-SP1 processing of HIV-1 Gag polyprotein; assay: Western blot of released virions with anti-HIV-1 CA antibody; format: cell-based
[15] = tested on: entire cell line panel
[16] = in vitro; settings: human
[17] = tested on: VSV-G pseudotyped HIV-1 particles; assay: microbe, parasite or virus in culture; format: cell-based; settings: read-out: IC50i (50% infection inhibition)
[18] = Human immunodeficiency virus 1, HEK293, 48 h

Structure (SMILES) | detection in living cells [1] | IC50 [2] [µM] | IC50 [3] [µM] | IC50 [4] [µM] | IC50 [5] [µM] | IC50 [6] [µM] | IC50 [7] [µM] | IC50 [8] [µM] | IC50 [9] [µM] | IC50 [10] [µM] | IC50 [11] [µM] | fraction of proliferating BrDU positive CCRF-CEM cells (in words) [12] | RNA synthesis by BrU (in words) [13] | CA forms identified in released viruses (CA-SP1 processing) [14] | cytotoxic effect in the cell line panel (in words) [15] | IC50 [16] [µM] | IC50 [17, 18] [µM] | IC50 [17] [µM]
O=C(O)CCNC1=C2C=CC=[N+]2[B-](F)(F)n2cccc21 [BODIPY-CO2H, 8-N-(β-Alanyl)amino-4,4-difluoro-4-bora-3a,4a-diaza-s-indacene] | not detected |  |  |  |  |  |  |  |  |  |  |  |  |  |  |  |  | 
C=C(C)[C@@H]1CC[C@]2(C(=O)NCCCNC(=O)OC(C)(C)C)CC[C@]3(C)[C@H](CC[C@@H]4[C@@]5(C)CC[C@H](OC(=O)CC(C)(C)C(=O)O)C(C)(C)[C@@H]5CC[C@]43C)[C@@H]12 [Compound 8, 4-{[(3β)-28-({3-[(Tert-butoxycarbonyl)amino]propyl}amino)-28-oxolup-20(29)-ene-3--yl]oxy}-2,2-dimethyl-4-oxobutanoic acid] |  | 8.18 | 9.24 | 19.2 | 13.3 | 18.8 | 13.2 | 21.6 | 17.2 | 23.1 | 21.5 | reduced the fraction of proliferating BrDU positive CCRF-CEM cells | stalled RNA synthesis | not only fully processed p24 CA, but also p25 CA-SP1 protein | medium cytotoxicity | 37.8 |  | 
C=C(C)[C@@H]1CC[C@]2(C(=O)NCCCNC3=C4C=CC=[N+]4[B-](F)(F)n4cccc43)CC[C@]3(C)[C@H](CC[C@@H]4[C@@]5(C)CC[C@H](OC(=O)CC(C)(C)C(=O)O)C(C)(C)[C@@H]5CC[C@]43C)[C@@H]12 [Compound 10, 4-{[(3β)-28-{[N-(4,4-Difluoro-4-bora-3a,4a-diaza-s-indacene-8-yl)-3-aminopropyl]amino}-28-oxolup-20(29)-ene-3-yl]oxy}-2,2-dimethyl-4-oxobutanoic acid] |  | 2.92 | 7 | 23.2 | 12.2 | 13.6 | 7.92 | 8.8 | 12.4 | 14.1 | 15.5 | reduced the fraction of proliferating BrDU positive CCRF-CEM cells | stalled RNA synthesis | not only fully processed p24 CA, but also p25 CA-SP1 protein | medium cytotoxicity | > 40 | < 10 | 8.4
NCCCNC1=C2C=CC=[N+]2[B-](F)(F)n2cccc21 [BODIPY-NH2, 8-N-(3-Aminopropyl)amino-4,4-difluoro-4-bora-3a,4a-diaza-s-indacene] | not detected |  |  |  |  |  |  |  |  |  |  |  |  |  |  |  |  | 
C=C(C)[C@@H]1CC[C@]2(C(=O)N3CCN(CCNC4=C5C=CC=[N+]5[B-](F)(F)n5cccc54)CC3)CC[C@]3(C)[C@H](CC[C@@H]4[C@@]5(C)CC[C@H](OC(=O)CC(C)(C)C(=O)O)C(C)(C)[C@@H]5CC[C@]43C)[C@@H]12 [Compound 18, 4-{[(3β)-28-{4-[N-(4,4-Difluoro-4-bora-3a,4a-diaza-s-indacene-8-yl)-2-aminoethyl]piperazine-1-yl}-28-oxolup-20(29)-ene-3-yl]oxy}-2,2-dimethyl-4-oxobutanoic acid] |  | 8.61 | > 50 | > 50 | > 50 | 47.8 | 30.8 | 45.5 | > 50 | > 50 | > 50 | increased the percentage of cells incorporating BrDU | increased the percentage of BrU positive cells | not only fully processed p24 CA, but also p25 CA-SP1 protein | inactive | > 40 | < 10 | 7.1
